Data taken from PMC6934184, “Selective DNA-PKcs inhibition extends the therapeutic index of localized radiotherapy and chemotherapy” (The Journal of Clinical Investigation, 2019).

Biological target: T1, KIT D820E (Homo sapiens, UniProt P10721, D820E)
T1 construct: purchased Thermo Fisher Scientific (Life Technologies) SelectScreen
Assay: SelectScreen LanthaScreen
Assay type: binding
Details: read-out: % displacement
Procedure, shortened: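 SelectScreen broad panel; activity (Z'LYTE, Adapta) plus binding formats. ATP: Km app for CSF1R Z'LYTE; 10 for CAMK1 Adapta. Readout = % per kinase.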

T1 sequence (P10721 26-976 D820E): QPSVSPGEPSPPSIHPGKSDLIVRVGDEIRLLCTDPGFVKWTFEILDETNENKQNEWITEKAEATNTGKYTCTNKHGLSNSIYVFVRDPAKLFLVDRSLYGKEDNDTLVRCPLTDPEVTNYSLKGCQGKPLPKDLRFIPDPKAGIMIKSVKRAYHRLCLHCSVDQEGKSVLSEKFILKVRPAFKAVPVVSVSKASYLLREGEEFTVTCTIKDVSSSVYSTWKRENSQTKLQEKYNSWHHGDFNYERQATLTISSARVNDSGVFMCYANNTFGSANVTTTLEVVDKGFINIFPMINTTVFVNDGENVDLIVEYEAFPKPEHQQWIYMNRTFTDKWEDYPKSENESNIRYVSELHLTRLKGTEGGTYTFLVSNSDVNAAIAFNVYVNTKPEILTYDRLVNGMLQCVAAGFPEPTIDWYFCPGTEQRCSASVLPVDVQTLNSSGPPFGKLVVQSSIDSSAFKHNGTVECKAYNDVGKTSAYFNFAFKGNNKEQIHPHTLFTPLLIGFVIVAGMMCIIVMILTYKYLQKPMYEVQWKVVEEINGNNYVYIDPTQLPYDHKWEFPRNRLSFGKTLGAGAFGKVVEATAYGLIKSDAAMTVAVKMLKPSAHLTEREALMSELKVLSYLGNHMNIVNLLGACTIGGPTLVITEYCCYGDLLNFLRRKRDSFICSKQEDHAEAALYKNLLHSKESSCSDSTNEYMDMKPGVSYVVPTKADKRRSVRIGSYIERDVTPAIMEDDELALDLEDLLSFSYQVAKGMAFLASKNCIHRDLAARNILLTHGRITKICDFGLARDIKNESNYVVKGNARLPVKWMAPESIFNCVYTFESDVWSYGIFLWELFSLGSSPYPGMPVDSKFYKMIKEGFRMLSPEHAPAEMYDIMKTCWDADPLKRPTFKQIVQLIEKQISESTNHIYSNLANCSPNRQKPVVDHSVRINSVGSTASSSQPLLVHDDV

With `CN(C(=O)CN1CCOCC1)c1ccc2sc3c(-c4cccc5c(=O)cc(N6CC7CCC(C6)O7)oc45)cccc3c2c1` [NU5455] the inhibition at 1 µM was 1.3%.
